Values of other authors, collected in patent US7271161B2, “Platinum complexes as antitumor agents in combination with biochemical modulation” (Board of Regents, the University of Texas System, priority 2002, dated 2007).

How the values were obtained:
[1] = test system: human melanoma cell line (RPMI 8322); details: cited from earlier work
[2] = molecular target: T1, γ-Glutamylcysteine synthetase (Rattus norvegicus, UniProt P19468); details: cited from earlier work
T1 sequence (P19468 1-637): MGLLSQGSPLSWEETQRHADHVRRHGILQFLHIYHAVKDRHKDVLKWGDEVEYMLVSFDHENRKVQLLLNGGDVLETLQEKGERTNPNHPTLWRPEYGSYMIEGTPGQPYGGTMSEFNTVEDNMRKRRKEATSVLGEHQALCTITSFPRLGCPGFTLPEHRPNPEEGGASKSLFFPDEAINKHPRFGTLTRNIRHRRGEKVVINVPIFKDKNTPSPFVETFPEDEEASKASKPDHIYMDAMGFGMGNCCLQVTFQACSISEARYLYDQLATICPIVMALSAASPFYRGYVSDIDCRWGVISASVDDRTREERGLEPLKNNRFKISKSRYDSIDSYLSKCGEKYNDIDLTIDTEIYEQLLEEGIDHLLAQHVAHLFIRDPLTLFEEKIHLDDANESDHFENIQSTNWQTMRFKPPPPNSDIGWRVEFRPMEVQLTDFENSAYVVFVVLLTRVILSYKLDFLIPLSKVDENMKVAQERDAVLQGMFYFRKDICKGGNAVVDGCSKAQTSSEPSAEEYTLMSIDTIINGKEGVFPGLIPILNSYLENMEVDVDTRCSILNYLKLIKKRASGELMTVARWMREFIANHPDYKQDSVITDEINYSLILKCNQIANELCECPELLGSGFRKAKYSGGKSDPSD

Row | SMILES | effect of BSO pretreatment on cytotoxicity [1] | inhibition effectiveness relative to methionine sulfoximine ([2]; vs. methionine sulfoximine) | inhibition effectiveness relative to prothionine sulfoximine ([2]; vs. prothionine sulfoximine)
1 | N[C@@H](Cc1ccc(N(CCCl)CCCl)cc1)C(=O)O [melphalan] | enhanced cytotoxicity | – | –
2 | CCCCS(=N)(=O)CCC(N)C(=O)O (stereo not drawn) [S-butyl homocysteine sulfoximine] | – | at least 100 times | about 20 times
